The text below walks through data of patent US20190352268A1, “CANNABINOID RECEPTOR MEDIATING COMPOUNDS” (The USA, as represented by the Secretary, Department of …, priority 2015, published 2019).

For one data set, the target named is CB1 (Mus musculus, UniProt P47746).
Data set [1] in a line: In vivo metabolism in mouse, plasma LC-MS/MS. The note with it: 1 h after oral administration at 10 mg/kg in mice.
In another data set the test system is ZDF rats. Put plainly: Zucker diabetic fatty (ZDF) rat model of type 2 diabetes. The data set is classed as in vivo. The note with it: 10 mg/kg/day oral gavage, 7 days. The source says:
The Zucker diabetic fatty (ZDF) rat is a commonly used animal model of type 2 diabetes with progressive β-cell loss resulting in extreme hyperglycemia. […] (Jourdan et al, Nature Med 2013, 19-(9):1132-1140).

For data set [2], the system named is CCl4-induced liver fibrosis. Put plainly: CCl4-induced liver fibrosis model in mice. The data set is classed as in vivo, mouse. The note with it: 10 mg/kg/day orally for 4 weeks. The method, then: CCl4-induced liver fibrosis was generated by intraperitoneal injection of CCL4 (1 ml/kg, diluted 1:10 corn oil), twice weekly for 8 weeks. […] Data represent mean±SEM from 7-8 mice per group.*P<0.05 relative to control. ^#indicates significant treatment effect (P<0.05) relative to CCl4-treated vehicle group.
Fibrosis results from excessive extracellular matrix deposition by myofibroblasts accompanying chronic inflammation and wound healing, and is a key pathogenic process in many organs, including kidneys, lung, and liver.

The test system of a further data set is DIO mice. The data set is described as follows: Mice with diet-induced obesity (DIO), 14 days oral treatment. The format is in vivo, mouse. The method, then: Data represent mean±SEM from 5-6 mice per group.*(P<0.05), indicate significant difference from […] diet control. ^# indicates significant treatment effect (P<0.05) relative to vehicle-treated HFD group.
Data represent mean±SEM from 5-6 mice per group. *(P<0.05), indicate significant difference from (STD) diet control. ^# indicates significant treatment effect (P<0.05) relative to vehicle-treated HFD group. […] Glucose tolerance and insulin sensitivity were determined on the last 2 days of treatment, using i.p. glucose tolerance and insulin sensitivity tests.

[3] abbreviates: DIO mice, 10 mg/kg/day, 14 days.

Sequence of CB1 (P47746 whole entry): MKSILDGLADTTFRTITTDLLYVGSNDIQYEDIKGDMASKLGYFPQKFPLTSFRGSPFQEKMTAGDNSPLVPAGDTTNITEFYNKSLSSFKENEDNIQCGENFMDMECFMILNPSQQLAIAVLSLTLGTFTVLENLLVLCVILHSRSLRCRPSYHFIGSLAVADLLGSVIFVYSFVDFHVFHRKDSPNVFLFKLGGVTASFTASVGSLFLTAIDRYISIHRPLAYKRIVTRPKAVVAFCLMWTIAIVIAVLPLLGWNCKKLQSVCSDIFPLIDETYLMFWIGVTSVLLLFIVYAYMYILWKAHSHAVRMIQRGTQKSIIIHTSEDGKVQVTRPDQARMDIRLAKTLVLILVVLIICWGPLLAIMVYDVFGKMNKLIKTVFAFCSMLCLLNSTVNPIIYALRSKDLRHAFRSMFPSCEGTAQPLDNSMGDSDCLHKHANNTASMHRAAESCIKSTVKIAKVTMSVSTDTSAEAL

Take `C/C(N)=N\C(=N/S(=O)(=O)c1ccc(Cl)cc1)N1CC(c2ccccc2)C(c2ccc(Cl)cc2)=N1` (racemic) [Compound 2, rac-N-(1-aminoethylidene)-3-(4-chlorophenyl)-N-((4-chlorophenyl)sulfonyl)-4-phenyl-4,5-dihydro-1H-pyrazole-1-carboximidamide]: the “Functional GTPγS binding CB1 Emax” value at CB1 is -20 % basal. Also, the “in vivo metabolism, metabolite generation in plasma” value in data set [1] was “underwent in vivo metabolism to liberate the amidine moiety and a metabolite”. In the data set with ZDF rats, the plasma c-peptide result is given as “prevented” and the plasma insulin result is reported as “prevented”. Moreover, the blood glucose entry in the data set with ZDF rats (10 mg/kg/day) is “prevented the progressive increase”. Further, in data set [2], the “liver fibrosis / collagen deposition by Sirius Red and Masson's trichrome staining” value is given as “more effective than rimonabant”; the “α-SMA, Procollagen-1 and Fibronectin-1 mRNA” value is listed as “more effective than rimonabant”. Further, the “CCl4-induced increase in immunoreactive iNOS” value in data set [2] (liver) is given as “attenuated”. Besides, in the data set with DIO mice (setting [3]), the HFD-induced glucose intolerance result is “abrogated”, the body weight entry is “reduced”, the food intake entry is listed as “reduced” and the “hepatic TG” value is “reduced”. Besides, in the data set with DIO mice (setting [3]), the hyperinsulinemia result is listed as “abrogated”, the hyperleptinemia entry was “reduced” and the insulin resistance entry was “abrogated”. Further, in the data set with DIO mice (DIO mice, last 2 days of treatment), the “insulin resistance (insulin sensitivity test)” value was “nearly completely normalized”. Further, the “glucose intolerance (i.p. glucose tolerance test)” value in the data set with DIO mice (DIO mice, last 2 days of treatment, i.p. glucose load 1.5 g/kg) is on record as “nearly completely normalized”. Also, the “In vivo Comments” value in the data set on DIO mice (mouse, in vivo) is reported as “-anti- diabetic -anti- obesity”.
